Data taken from patent US6403830B2, “Amidino compound and salts thereof useful as nitric oxide synthase inhibitors” (Pharmacia Corporation, priority 2000, dated 2002).
Where a name gives a salt, the structure may show the parent alone.

Assays:
[1] = molecular target: T1, Human inducible NOS (hiNOS) (Homo sapiens, UniProt P35228); assay: Citrulline assay for nitric oxide synthase, hiNOS; type: biochemical; conditions: recombinant enzyme, 30 μM L-arginine; averages across all experiments and all lots
T1 construct: made in house; host or cells: Sf9 insect cells (baculovirus vector)
T1 sequence (P35228 whole entry): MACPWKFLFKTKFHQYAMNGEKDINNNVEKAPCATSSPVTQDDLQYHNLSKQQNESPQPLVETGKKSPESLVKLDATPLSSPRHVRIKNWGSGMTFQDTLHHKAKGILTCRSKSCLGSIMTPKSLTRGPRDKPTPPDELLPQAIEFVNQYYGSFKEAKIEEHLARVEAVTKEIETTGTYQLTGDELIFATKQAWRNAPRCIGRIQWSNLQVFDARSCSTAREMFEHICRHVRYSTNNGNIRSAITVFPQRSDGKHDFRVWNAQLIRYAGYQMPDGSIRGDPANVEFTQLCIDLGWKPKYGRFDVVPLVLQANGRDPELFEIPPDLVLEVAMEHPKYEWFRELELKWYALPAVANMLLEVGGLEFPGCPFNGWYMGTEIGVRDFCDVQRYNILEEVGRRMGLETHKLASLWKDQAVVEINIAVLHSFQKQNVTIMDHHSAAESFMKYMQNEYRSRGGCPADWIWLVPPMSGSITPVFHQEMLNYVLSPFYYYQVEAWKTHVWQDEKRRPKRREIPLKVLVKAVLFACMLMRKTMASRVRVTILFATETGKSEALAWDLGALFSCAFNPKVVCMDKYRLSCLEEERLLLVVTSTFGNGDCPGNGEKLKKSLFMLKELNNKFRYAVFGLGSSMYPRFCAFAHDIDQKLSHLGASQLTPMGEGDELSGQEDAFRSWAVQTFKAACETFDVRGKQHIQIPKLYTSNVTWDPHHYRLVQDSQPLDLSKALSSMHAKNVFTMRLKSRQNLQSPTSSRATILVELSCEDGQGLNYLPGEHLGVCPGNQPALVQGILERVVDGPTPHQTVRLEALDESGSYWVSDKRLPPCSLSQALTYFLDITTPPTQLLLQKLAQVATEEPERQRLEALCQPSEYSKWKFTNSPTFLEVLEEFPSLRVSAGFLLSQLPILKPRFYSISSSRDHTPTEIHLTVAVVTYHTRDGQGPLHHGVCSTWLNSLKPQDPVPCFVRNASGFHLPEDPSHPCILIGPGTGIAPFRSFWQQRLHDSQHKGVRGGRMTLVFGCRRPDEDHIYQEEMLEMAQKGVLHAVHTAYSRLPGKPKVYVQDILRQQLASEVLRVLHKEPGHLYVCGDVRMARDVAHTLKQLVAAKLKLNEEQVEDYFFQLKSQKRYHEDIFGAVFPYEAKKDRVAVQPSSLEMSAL
Excerpt: (§1) Nitric oxide synthase (NOS) activity can be measured by monitoring the conversion of L-[2,3-^3H]-arginine to L-[2,3-^3H]-citrulline (Bredt and Snyder, Proc. Natl. Acad. Sci. U.S.A., 87, 682-685, 1990 and Moore et al, J. Med. Chem. 39, 669-672, 1996). Human inducible NOS (hiNOS), human endothelial constitutive NOS (hecNOS) and human neuronal constitutive NOS (hncNOS) are each cloned from RNA extracted from human tissue. The cDNA for human inducible NOS (hiNOS) is isolated from a λcDNA library made from RNA extracted from a colon sample from a patient with ulcerative colitis. The cDNA for human endothelial constitutive NOS (hecNOS) is isolated from a λcDNA library made from RNA extracted from human umbilical vein endothelial cells (HUVEC) and the cDNA for human neuronal constitutive NOS (hncNOS) is isolated from a λcDNA library made from RNA extracted from human cerebellum obtained from a cadaver. The recombinant enzymes are expressed in Sf9 insect cells using a baculovirus vector (Rodi et al, in The Biology of Nitric Oxide, Pt. 4: Enzymology, Biochemistry and Immunology: Moncada, S., Feelisch, M., Busse, R., Higgs, E., Eds.; Portland Press Ltd.: London, 1995; pp 447-450). Enzyme activity is isolated from soluble cell extracts and partially purified by DEAE-Sepharose chromatography. To measure NOS activity, 10 μL of enzyme is added to 40 μL of 50 mM Tris (pH 7.6) in the presence or absence of test compounds and the reaction initiated by the addition of 50 μL of a reaction mixture containing 50 mM Tris (pH 7.6), 2.0 mg/mL bovine serum albumin, 2.0 mM DTT, 4.0 mM CaCl2, 20 μM FAD, 100 μM tetrahydrobiopterin, 0.4 mM NADPH and 60 μM L-arginine containing 0.9 μCi of L-[2,3-^3H]-arginine. The final concentration of L-arginine in the assay is 30 μM. For hecNOS or hncNOS, calmodulin is included at a final concentration of 40-100 nM. Following incubation at 37° C. for 15 minutes, the reaction is terminated by addition of 400 μL of a suspension (1 part resin, 3 parts buffer) of Dowex 5OW X-8 cation exchange resin in a stop buffer containing 10 mM EGTA, 100 mM HEPES, pH 5.5 and 1 mM L-citrulline. After mixing the resin is allowed to settle and L-[2,3-^3H]-Citrulline formation is determined by counting aliquots of the supernatant with a liquid scintillation counter. Results are reported in Table 1 as the IC50 values of compounds for hiNOS, hecNOS and hncNOS.

[2] = molecular target: T2, human endothelial constitutive NOS (hecNOS) (Homo sapiens, UniProt P29474); assay: Citrulline assay for nitric oxide synthase, hecNOS; type: biochemical; conditions: recombinant enzyme, 30 μM L-arginine, calmodulin; averages across all experiments and all lots
T2 construct: made in house; host or cells: Sf9 insect cells (baculovirus vector)
T2 sequence (P29474 2-1203): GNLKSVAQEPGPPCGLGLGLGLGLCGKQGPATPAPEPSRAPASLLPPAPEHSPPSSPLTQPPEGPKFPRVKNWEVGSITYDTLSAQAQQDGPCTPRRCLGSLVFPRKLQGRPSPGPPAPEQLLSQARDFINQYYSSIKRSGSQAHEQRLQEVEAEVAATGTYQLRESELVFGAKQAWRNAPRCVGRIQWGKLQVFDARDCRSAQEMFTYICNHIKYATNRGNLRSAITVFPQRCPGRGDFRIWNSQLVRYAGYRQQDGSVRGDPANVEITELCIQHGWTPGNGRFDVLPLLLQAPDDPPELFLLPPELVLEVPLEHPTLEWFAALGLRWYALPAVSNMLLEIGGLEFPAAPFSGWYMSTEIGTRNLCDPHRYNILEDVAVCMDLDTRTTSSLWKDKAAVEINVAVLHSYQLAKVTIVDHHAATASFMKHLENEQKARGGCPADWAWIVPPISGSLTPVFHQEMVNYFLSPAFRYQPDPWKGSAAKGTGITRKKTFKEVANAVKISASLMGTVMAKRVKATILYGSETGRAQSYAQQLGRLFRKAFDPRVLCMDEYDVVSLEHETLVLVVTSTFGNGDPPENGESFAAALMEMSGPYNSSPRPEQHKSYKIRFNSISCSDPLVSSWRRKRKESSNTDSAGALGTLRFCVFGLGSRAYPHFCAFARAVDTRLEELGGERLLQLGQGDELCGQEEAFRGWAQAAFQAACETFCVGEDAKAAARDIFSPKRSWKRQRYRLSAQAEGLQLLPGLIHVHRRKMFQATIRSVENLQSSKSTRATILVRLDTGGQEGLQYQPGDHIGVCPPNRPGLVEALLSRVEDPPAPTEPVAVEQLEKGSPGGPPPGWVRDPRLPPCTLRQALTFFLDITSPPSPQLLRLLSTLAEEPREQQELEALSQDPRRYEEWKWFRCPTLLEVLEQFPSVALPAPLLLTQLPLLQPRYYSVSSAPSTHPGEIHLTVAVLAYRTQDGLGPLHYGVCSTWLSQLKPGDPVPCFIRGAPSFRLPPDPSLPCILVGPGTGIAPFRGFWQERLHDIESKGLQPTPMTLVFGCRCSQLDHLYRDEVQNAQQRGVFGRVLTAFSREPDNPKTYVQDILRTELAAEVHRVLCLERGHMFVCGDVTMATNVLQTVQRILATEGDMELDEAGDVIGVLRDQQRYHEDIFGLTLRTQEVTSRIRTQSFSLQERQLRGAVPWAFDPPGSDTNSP
Excerpt: as §1

[3] = molecular target: T3, human neuronal constitutive NOS (hncNOS) (Homo sapiens, UniProt P29475); assay: Citrulline assay for nitric oxide synthase, hncNOS; type: biochemical; conditions: recombinant enzyme, 30 μM L-arginine, calmodulin; averages across all experiments and all lots
T3 construct: made in house; host or cells: Sf9 insect cells (baculovirus vector)
T3 sequence (P29475 whole entry): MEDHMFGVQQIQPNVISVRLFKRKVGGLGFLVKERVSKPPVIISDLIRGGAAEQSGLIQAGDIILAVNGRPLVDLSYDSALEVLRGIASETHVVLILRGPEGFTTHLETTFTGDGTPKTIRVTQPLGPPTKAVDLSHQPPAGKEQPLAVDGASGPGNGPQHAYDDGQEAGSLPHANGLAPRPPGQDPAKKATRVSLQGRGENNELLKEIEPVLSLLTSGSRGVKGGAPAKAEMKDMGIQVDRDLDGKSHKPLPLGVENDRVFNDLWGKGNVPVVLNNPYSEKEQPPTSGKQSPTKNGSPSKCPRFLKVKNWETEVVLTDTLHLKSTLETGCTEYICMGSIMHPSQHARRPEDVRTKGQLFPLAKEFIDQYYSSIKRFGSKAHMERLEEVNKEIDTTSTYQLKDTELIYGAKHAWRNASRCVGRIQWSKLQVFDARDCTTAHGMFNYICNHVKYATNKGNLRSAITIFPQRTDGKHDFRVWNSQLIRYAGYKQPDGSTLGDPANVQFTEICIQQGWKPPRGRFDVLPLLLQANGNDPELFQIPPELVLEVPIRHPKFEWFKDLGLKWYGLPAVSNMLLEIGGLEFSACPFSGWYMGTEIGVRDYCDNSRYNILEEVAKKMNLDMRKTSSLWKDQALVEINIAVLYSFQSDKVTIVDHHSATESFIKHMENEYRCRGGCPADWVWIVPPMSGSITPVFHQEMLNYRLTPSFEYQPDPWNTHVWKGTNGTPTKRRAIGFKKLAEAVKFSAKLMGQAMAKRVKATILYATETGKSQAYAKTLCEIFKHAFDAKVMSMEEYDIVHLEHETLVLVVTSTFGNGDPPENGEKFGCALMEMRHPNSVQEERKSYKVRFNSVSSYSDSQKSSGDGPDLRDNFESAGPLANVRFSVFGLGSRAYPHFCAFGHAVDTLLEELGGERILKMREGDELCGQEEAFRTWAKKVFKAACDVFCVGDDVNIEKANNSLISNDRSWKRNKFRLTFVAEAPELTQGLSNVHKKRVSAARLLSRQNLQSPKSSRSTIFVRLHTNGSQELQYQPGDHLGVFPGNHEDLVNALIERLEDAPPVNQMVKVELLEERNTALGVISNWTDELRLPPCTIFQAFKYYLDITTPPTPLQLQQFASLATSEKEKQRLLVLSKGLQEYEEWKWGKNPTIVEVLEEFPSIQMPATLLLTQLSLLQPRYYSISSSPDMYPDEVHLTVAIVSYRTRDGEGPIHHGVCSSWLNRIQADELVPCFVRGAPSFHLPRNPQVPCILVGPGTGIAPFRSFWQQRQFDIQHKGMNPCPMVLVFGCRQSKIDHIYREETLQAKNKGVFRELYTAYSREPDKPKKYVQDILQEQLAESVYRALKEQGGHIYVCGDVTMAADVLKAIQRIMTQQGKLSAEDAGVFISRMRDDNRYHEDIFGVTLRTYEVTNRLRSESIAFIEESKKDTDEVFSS
Excerpt: as §1

[4] = tested on: nitrite production in human cartilage explants induced with recombinant human IL-1β; assay: Human Cartilage Explant Assay; type: cell-based; conditions: inhibition of nitrite production, IL-1β-stimulated explants, averages across all experiments and all lots
Description: Bone pieces are rinsed twice with Dulbecco's Phosphate Buffered Saline (GibcoBRL) and once with Dulbecco's Modified Eagles Medium (GibcoBRL) and placed into a petri dish with phenol red free Minimum Essential Medium (MEM) (GibcoBRL). Cartilage was cut into small explants of approximately 15-45 mg in weight and one or two explants per well are placed into either 96 or 48 well culture plates with 200-500 μL of culture media per well. The culture media was either a custom modification of Minimum Essential Medium(Eagle) with Earle's salts (GibcoBRL) prepared without L-Arginine, without L-Glutamine and without phenol red or a custom modification of serumless Neuman and Tytell (GibcoBRL) medium prepared without L-arginine, without insulin, without ascorbic acid, without L-glutamine and without phenol red. Both are supplemented before use with 100 μM L-Arginine (Sigma), 2 mM L-glutamine, 1×HL-1 supplement (BioWhittaker), 50 mg/ml ascorbic acid (Sigma) and 150 pg/ml recombinant human IL-1β (RD Systems) to induce nitric oxide synthase. Compounds are then added in 10 μL aliquots and the explants incubated at 37° C. with 5% CO2 for 18-24 hours. […] This supernatant is analyzed for nitrite with a fluorometric assay (Misko et al, Anal. Biochem., 214, 11-16, 1993). […]

| SMILES | IC50 [1] [µM] | IC50 [2] [µM] | IC50 [3] [µM] | IC50 [4] [µM] |
| --- | --- | --- | --- | --- |
| CC(=N)NC[C@@H](C)SC[C@](C)(N)C(=O)O [Example 3, S-[(1R)-2-[(1-Iminoethyl)amino]-1-methylethyl]-2-methyl-L-cysteine, dihydrochloride] | 74 | 266 | 86 |  |
| CC(=N)NCC[S+]([O-])C[C@](C)(N)C(=O)O (mixture of isomers) [Example 18, (2R)-2-Amino-3[[2-[(1-iminoethyl)amino]ethyl]sulfmyl]-2-methylpropanoic acid, dihydrochloride] | 12 | > 100 | 181 |  |
| CC(=N)NCCS(=O)(=O)C[C@](C)(N)C(=O)O [Example 19, (2R)-2-Amino-3[[2-[(1-iminoethyl)amino]ethyl]sulfonyl]-2-methylpropanoic acid dihydrochloride] | 12 | 1080 | 220 |  |
| CC(=N)NCCSC[C@](C)(N)C(=O)O [Example 1, S-[2-[(1-Iminoethyl)amino]ethyl]-2-methyl-L-cysteine, dihydrochloride] | 3.1 | 77 | 15 | 0.7 |
| CC(=N)NCCSC[C@](N)(C(=O)O)C(C)C [Example 11, 2-[[[[2-(1-Iminoethyl)amino]ethyl]thio]methyl]-D-valine, dihydrochloride] | 0.9 | 26 | 6 |  |
| CC(=N)NC[C@H](C)SC[C@](C)(N)C(=O)O [Example 4, S-[(1S)-2-[(1-Iminoethyl)aminol-1-methylethyl]-2-methyl-L-cysteine, dihydrochloride] | 197 | 1100 | 539 |  |
| CC[C@](N)(CSCCNC(C)=N)C(=O)O [Example 7, S-[2-[(1-Iminoethyl)amino]ethyl]-2-ethyl-L-cysteine, dihydrochloride] | 3.4 | 78 | 17 |  |
| COC[C@](N)(CSCCNC(C)=N)C(=O)O [Example 2, 2-[[[2-[(1-Iminoethyl)amino]ethyl]thio]methyl]-O-methyl-D-serine, dihydrochloride] | 4.4 | 302 | 58 |  |
| CC(=N)NCCSCC(C)(N)C(=O)O (stereo not drawn) [Example 16, S-[2-(1-Iminoethylamino)ethyl]-2-methyl-(D/L)-cysteine, bistrifluoroacetate] | 7.2 | > 100 | 36 | 0.7 |
